Test results taken from patent US7294618B2, “Glucopyranosyloxypyrazole derivatives and medicinal use thereof” (Kissei Pharmaceutical Co., Ltd., priority 2001, dated 2007).

What was measured:
human SGLT2 = molecular target: T1, human SGLT2 (Homo sapiens, UniProt P31639, I433V); experiment: Assay for inhibitory effect on human SGLT2 activity (uptake of methyl-α-D-glucopyranoside); assay type: cell-based; settings: for IC50: COS-7 cells expressing transiently human SGLT2, uptake of methyl-α-D-(U-14C)glucopyranoside, 37° C., 2 hours
T1 construct: expressed in transfected cells; host or cells: COS-7 cells (RIKEN CELL BANK RCB0539), transient, electroporation of KL29
T1 sequence (P31639 1-672 I433V): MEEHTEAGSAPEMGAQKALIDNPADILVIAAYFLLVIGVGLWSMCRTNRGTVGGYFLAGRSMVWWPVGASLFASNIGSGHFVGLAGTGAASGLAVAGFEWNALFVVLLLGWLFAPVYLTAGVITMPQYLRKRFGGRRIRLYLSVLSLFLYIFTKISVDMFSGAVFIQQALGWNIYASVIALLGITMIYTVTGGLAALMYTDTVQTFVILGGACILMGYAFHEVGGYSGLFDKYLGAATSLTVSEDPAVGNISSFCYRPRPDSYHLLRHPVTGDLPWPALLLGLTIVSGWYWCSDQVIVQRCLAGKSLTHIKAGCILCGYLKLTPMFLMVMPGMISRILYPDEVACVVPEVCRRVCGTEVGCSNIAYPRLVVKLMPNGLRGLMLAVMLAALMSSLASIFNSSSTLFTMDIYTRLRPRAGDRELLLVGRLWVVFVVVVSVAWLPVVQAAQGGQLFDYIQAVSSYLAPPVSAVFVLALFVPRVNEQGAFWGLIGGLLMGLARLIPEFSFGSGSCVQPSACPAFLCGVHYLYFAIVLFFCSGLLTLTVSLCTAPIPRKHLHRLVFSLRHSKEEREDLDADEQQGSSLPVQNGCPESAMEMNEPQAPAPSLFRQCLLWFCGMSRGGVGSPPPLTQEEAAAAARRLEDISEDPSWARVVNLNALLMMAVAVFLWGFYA
Method: • Assay for Inhibitory Effect on Human SGLT2 Activity • 1) Construction of the Plasmid Vector Expressing Human SGLT2
Preparation of the cDNA library for PCR amplification was performed by reverse transcription of a total RNA deprived from human kidney (Ori gene) with oligo dT as the primer, using SUPERSCRIPT Preamplification System (Gibco-BRL: LIFE TECHNOLOGIES). The DNA fragment coding for human SGLT2 was amplified by the PCR reaction, in which the human kidney cDNA library described above was used as the template and the following oligo nucleotides 0702F and 0712R, presented as Sequence Numbers 1 and 2 respectively, were used as the primers. The amplified DNA fragment was ligated into pCR-Blunt (Invitrogen), a vector for cloning, according to standard method of the kit. The Escherichia coli HB101 was transformed according to usual method and then selection of the transformants was performed on the LB agar medium containing 50 μg/mL of kanamycin. After plasmid DNA was extracted and purified from the one of the transformants, amplifying of the DNA fragment coding for human SGLT2 was performed by the PCR reaction, in which the following oligo nucleotides 0714F and 0715R, presented as Sequence Numbers 3 and 4 respectively, were used as the primers. The amplified DNA fragment was digested with restriction enzymes, Xho I and Hind III, and then purified with Wizard Purification System (Promega). This purified DNA fragment was inserted at the corresponding restriction sites of pcDNA3.1 (−) Myc/His—B (Invitrogen), a vector for expressing of fusion protein. The Escherichia coli HB101 was transformed according to usual method and then selection of the transformant was performed on the LB agar medium containing 100 μg/mL of ampicillin. After plasmid DNA was extracted and purified from this transformant, the base sequence of the DNA fragment inserted at the multi-cloning sites of the vector pcDNA3. 1 (−) Myc/His—B was analyzed. […] Sequentially, a clone in which valine is substituted for isoleucine-433 was obtained. This plasmid vector expressing human SGLT2 in which the peptide presented as Sequence Number 5 is fused to the carboxyl terminal alanine residue was designated KL29.
• 2) Preparation of the Cells Expressing Transiently Human SGLT2
KL29, the plasmid coding human SGLT2, was transfected into COS-7 cells (RIKEN CELL BANK RCB0539) by electroporation. Electroporation was performed with EC100 Electroporater (E-C APPARATUS CORPORATION) under the condition: 400 V, 1260 μF, 3.2×10^6 cells of COS-7 cell and 20 μg of KL29 in 800 μL of OPTI-MEM I medium (Gibco-BRL: LIFE TECHNOLOGIES) in the 0.4 cm type cuvette. After the gene transfer, the cells were harvested by centrifugation and resuspended with OPTI-MEM I medium (3.2 mL/cuvette). […]

[1] = normal mice; J. Med. Chem., Vol. 39, pp. 3920-3928 (1996); cited from earlier work

| SMILES | IC50 (human SGLT2) | inhibitory activity in human SGLT2 (human SGLT2; statement in words) | amount of excreted glucose [1] |
| --- | --- | --- | --- |
| CSc1ccc(Cc2c(C(F)(F)F)[nH][nH]c2=O)cc1 [WAY-123783] | > 100000 nM | extremely weak | increased |
| CCc1ccc(Cc2c(O[C@@H]3O[C@H](CO)[C@@H](O)[C@H](O)[C@H]3O)nn(-c3ccccc3)c2C)cc1 [Example 18, 4-[(4-Ethylphenyl)methyl]-3-(β-D-glucopyranosyloxy)-5-methyl-1-phenyl-1H-pyrazole] | 270 nM |  |  |
| Cc1c(Cc2ccc(OC(C)C)cc2)c(O[C@@H]2O[C@H](CO)[C@@H](O)[C@H](O)[C@H]2O)nn1-c1ccccc1 [Example 20, 3-(β-D-Glucopyranosyloxy)-4-[(4-isopropoxyphenyl)methyl]-5-methyl-1-phenyl-1H-pyrazole] | 200 nM |  |  |
